The values that follow come from patent US20060183221A1, “Method for neural differentiation of embryonic stem cells using protease passaging techniques” (priority 2003, published 2006).

SMILES strings stand for the structures. “Also recorded” adds a separate entry of the source.

Assay [1] concerns EB8-derived cells. Description: Injection of ceramide analog treated EB8-derived stem cells into mouse brains, teratoma formation. Conditions: EB8-derived cells treated with 75 μM S18 for 24-48 hours, injected into brain of 8-10 day old C57BL6 mice, analysed after 7-21 days. The class given is in vivo. How it is done:
In vitro differentiating ES cells at stage EB8 were incubated for 24-48 hours with 75 μM S18, or 35 μM N-acyl sphingosine or other ceramide analogs. Protein was isolated from cells incubated with S18 for 24 hours and from untreated cells, separated by SDS-PAGE, and the expression of Oct4 was analyzed by immunoblotting.
Prior to injection into the mouse brain, ES cells were labeled with Vybrant-DiI (rhodamine fluorescence) for permanent vital staining and were mixed with India ink in order to track the injection channel and cell migration/tissue integration. 1×10^4 of the untreated ES-J1 cells were injected, while 2×10^4 of the S18-treated cells were injected in order to control for the percentage of cells lost to apoptosis. The ES cells were injected into the right brain hemisphere (bregma −1.5 mm, 1 mm lateral of central suture, 2.0 mm deep) of 8-10 day old C57BL6 mice using a Hamilton syringe. After 7-21 days, the mice were sacrificed, the brain isolated and fixed with 10% PBS-buffered formalin. The brains were Vibratome sectioned at 100 μm. The distribution of the injected cells was determined by fluorescence microscopy.

For assay [2], the system named is seeded sfEBMs derived from domed HESC colonies. Description: S18 treatment of seeded serum free embryoid bodies (sfEBMs), cell death by morphology and DAPI staining. The class given is cell-based, human. The source says: sfEBMs were derived from domed HESC colonies, grown in suspension for 24 days with one passage, and seeded to polyornithine/laminin coated chamber slides in DMEM/F12, supplemented with 1×N2 (Gibco), and 1% FCS.
Apoptosis in seeded serum free embryoid bodies was monitored by morphological observation of cell death and DAPI staining to reveal apoptotic nuclei. Apoptotic nuclei were observed as obviously fragmented and degenerating nuclei, with small punctuate patterns of DAPI staining. Rosette regions from essentially serum free embryoid bodies in suspension were passaged further in the same medium, either withdrawing S18 or culturing the embryoid bodies for an additional 4 to 8 days in the presence of S18. Rosette regions were then seeded onto polyornithine/laminin coated slides for analysis of proliferation and differentiation to neural lineages.

For assay [3], the system named is sfEBMs in suspension. Description: S18 treatment of essentially serum free embryoid bodies (sfEBMs) in suspension, histology and immunocytochemistry. It is filed as cell-based, human. As to the method:
Essentially serum free embryoid bodies (sfEBMs) were generated as described in Example 6, and were exposed to S18 at different stages of their development in order to assess the timing of depletion of high Oct4 expressing cells, and in order to determine when neural rosettes could be selected. The sfEBMs in suspension were treated with 10 μM S18 in 50% DMEM/F12, 50% MEDII, supplemented with 1×N2, Glutamine (20 mM), penicillin (0.5 U/ml), and streptomycin (0.5 U/ml) for varying amounts of time, and the sfEBMs were then evaluated histologically and by immunocytochemistry.
Essentially serum free embryoid bodies were derived from protease passaged cells and grown in the presence of 50% MEDII conditioned medium. The embryoid bodies were exposed to 10 μM S18 in the same medium from day 6 to 9 after derivation. At day 9 the S18 treated sfEBMs and matched control sfEBMs not exposed to S18 were fixed, embedded in plastic, cut to 3 micron sections and stained with DAPI to enable the precise determination of the proportion of the total healthy nuclei of an sfEBM that were rosette cell nuclei.
This material was exposed to 10 μM S18 in 50% MEDII medium for 2 days, followed by manual passaging, and an additional 4 days in 10 μM S18 in the same medium. […] The non-rosette regions of the sfEBM fragmented when manipulated and released extensive stringy material that was indicative of genomic DNA from lysed cells. […] The rosette pieces were incubated in 10 μM S18 for a further 4 days, and the medium was then switched to 50% DMEM/F12, 50% MEDII, supplemented with 1×N2, and 4 ng/ml FGF-2 at day 20 after the initial derivation of the embryoid bodies.
At day 21 some ceramide selected sfEBMs were seeded onto polyornithine/laminin coated slides, cultured in the same medium for an additional 8 days, and fixed for immunostaining. These seeded pieces developed as rosette cultures and mats of neurons were observed differentiating from these precursors.
Essentially serum free embryoid bodies were derived from manually passaged cells, or protease passaged cells. EBs derived from protease passaged cells were formed in the presence of 50% MEDII conditioned medium. The embryoid bodies were exposed to 10 μM S18 in the same medium from day 6 to 9 after derivation. At day 9 the S18 treated sfEBMs matched control sfEBMs not exposed to S18, and matched control manually passaged sfEBs were sectioned to enable the precise determination of the proportion of the total healthy nuclei of an sfEBM that were rosette cell nuclei. The serum free embryoid bodies were embedded using the Immuno-Bed kit (Polysciences, Inc.). Serum free embryoid bodies were rinsed with 1×PBS and fixed in 4% paraformaldehyde, 4% sucrose in 1×PBS for 30 minutes at 4° C. The cells were then washed in 1×PBS and stored at 4° C. PBS was removed and the embryoid bodies were dehydrated by incubation in a series of 25%, 50%, 75% Ethanol/PBS for 5 minutes at room temperature, followed by 100% Ethanol. Infiltration solution was made by adding 0.25 g Benzoyl Peroxide to 20 ml Immuno-Bed Solution A. The ethanol was removed from the serum free embryoid bodies and 1 ml infiltration solution was added. After one hour, the infiltration solution was changed for three 20 min incubations. For embedding, 1 ml solution B (accelerator) was added to 25 ml fresh infiltration solution. The infiltration solution was removed from the serum free embryoid bodies and 0.5 ml embedding solution was added. The samples were transferred to a mold, a block holder was added and the mold was placed at 4° C. to set. 3 micron sections were cut using a Leica microtome, and were stained with DAPI.

Setting [4] is: sfEBMs at day 14, 48 hours exposure to 10 μM S18.

For the molecule `CCCCCCCC/C=C\CCCCCCCC(=O)NC(CO)CO` [S18, N-(2-hydroxy-1-(hydroxymethyl)ethyl)-oleoylamide], the teratoma formation result in assay [1] was “No teratomas were detected; also recorded: did not show the formation of teratomas”. The “time until the effect was observed” value in assay [2] (6, 8 or 10 μM S18) is at most 24 h. In assay [2] (6, 8 or 10 μM S18 for 36 hours), the “effect on neural rosette structures” value is “did not appear to be adversely affected” and the “induction of apoptosis in the culture” value was “induced apoptosis of a large proportion of the culture”. The cell death entry in assay [2] (36 hours exposure to 6 μM S18) is “a high proportion of cells within these cultures have been killed”. Also, in assay [2] (36 hours exposure to 8 μM S18), the cell death result was “a high degree of cell death is apparent”. The “derivation of sfEBMs from monolayer crater cells” value in assay [3] (10 μM S18, four days of treatment) was “No viable embryoid bodies were observed”. Besides, the “regions or cells of high Oct4 expression (residual pluripotent cells)” value in assay [3] (10 μM S18 in suspension, then seeded, anti-Oct4 immunostaining) was “no regions of high Oct4 expression could be detected; also recorded: do not exhibit any cells expressing high levels of Oct4”. Also, in assay [3] (day 28 after derivation, 8 days after withdrawal of S18), the “mitotic activity of neural rosette precursor cells (PhosphoHistone H3)” value was “still mitotically active”. In assay [3] (setting [4]), the “apoptosis in the embryoid bodies” value is given as “extensive apoptosis in the bodies” and the “morphology of rosette regions” value is on record as “morphologically normal”. In addition, the “surviving cells in DAPI stained sections of sfEBMs” value in assay [3] (sfEBMs from SSEA4 selected protease passaged HESCs, 10 μM S18 from day 6 to 9) is on record as “highly enriched population of neural rosette cells; also recorded: nearly all nuclei in the treated sfEBM were elongated in appearance; also recorded: Nearly all cells exhibited a radial nuclear staining”.
